Several values for one entry are separate records, joined by “and”; a condition that tells them apart may be missing. Equal entries are not always repeated. ± gives the expanded uncertainty stated by the source.
What was measured:
[1] = 101.33 kPa, Liquid
[2] = xn = mol fraction of the nth substance listed; conditions: 101.33 kPa, Liquid

C1CCNC1 [pyrrolidine]
[1]
Conditions	mass density [kg/m3]
298.15 K	854.6 ± 4.2
323.15 K	833.7 ± 4.1

C1CCNC1 [pyrrolidine] + O
mass density, [2]
Conditions	298.15 K	323.15 K
x1 = 0.099	976 ± 4.8 kg/m3	960 ± 4.7 kg/m3
x1 = 0.1	973.9 ± 4.8 kg/m3	963.6 ± 4.8 kg/m3
x1 = 0.199	956.6 ± 4.7 kg/m3	941.5 ± 4.6 kg/m3
x1 = 0.204	952.8 ± 4.7 kg/m3	937.2 ± 4.6 kg/m3
x1 = 0.297	934.7 ± 4.6 kg/m3	921.2 ± 4.6 kg/m3
x1 = 0.299	938.8 ± 4.7 kg/m3	924.5 ± 4.6 kg/m3
x1 = 0.396	925.8 ± 4.6 kg/m3	904 ± 4.5 kg/m3
x1 = 0.399	925.4 ± 4.6 kg/m3	907.4 ± 4.5 kg/m3
x1 = 0.497	912.1 ± 4.5 kg/m3	891.1 ± 4.4 kg/m3
x1 = 0.498	911.5 ± 4.5 kg/m3	891.2 ± 4.4 kg/m3
x1 = 0.589	901.1 ± 4.4 kg/m3	883.5 ± 4.4 kg/m3
x1 = 0.596	900.2 ± 4.4 kg/m3	879.9 ± 4.3 kg/m3
x1 = 0.675	893.8 ± 4.4 kg/m3	871.3 ± 4.3 kg/m3
x1 = 0.697	893.4 ± 4.4 kg/m3	868.5 ± 4.3 kg/m3
x1 = 0.786	879.9 ± 4.3 kg/m3	858.3 ± 4.2 kg/m3
x1 = 0.796	877.1 ± 4.3 kg/m3	858.6 ± 4.2 kg/m3
x1 = 0.882	865.3 ± 4.3 kg/m3	843.5 ± 4.2 kg/m3
x1 = 0.888	865.6 ± 4.3 kg/m3	845.6 ± 4.2 kg/m3
x1 = 0.995	852.9 ± 4.2 kg/m3 and 856.2 ± 4.2 kg/m3	834.6 ± 4.1 kg/m3 and 832.8 ± 4.1 kg/m3

C1COCCN1 [tetrahydro-1,4-oxazine]
[1]
Conditions	mass density [kg/m3]
298.15 K	996 ± 4.9
333.15 K	965.9 ± 4.7

C1COCCN1 [tetrahydro-1,4-oxazine] + O
mass density, [2]
Conditions	298.15 K	333.15 K
x1 = 0.1	1023.2 ± 5 kg/m3 and 1010.6 ± 5 kg/m3	1001.2 ± 4.9 kg/m3 and 1005.4 ± 4.9 kg/m3
x1 = 0.199	1031.5 ± 5.1 kg/m3 and 1025.9 ± 5 kg/m3	1010.5 ± 5 kg/m3 and 1006.2 ± 4.9 kg/m3
x1 = 0.298	1030.9 ± 5.1 kg/m3	1010.6 ± 5.1 kg/m3
x1 = 0.299	1029.6 ± 5.1 kg/m3	1006.8 ± 5.1 kg/m3
x1 = 0.398	1029.8 ± 5.1 kg/m3 and 1028.4 ± 5 kg/m3	1006.1 ± 4.9 kg/m3 and 1005.1 ± 4.9 kg/m3
x1 = 0.497	1023.4 ± 5.1 kg/m3	1000.6 ± 5.3 kg/m3
x1 = 0.498	1025.5 ± 5.1 kg/m3	996.6 ± 5.3 kg/m3
x1 = 0.591	1016.8 ± 5 kg/m3	990.3 ± 4.9 kg/m3
x1 = 0.597	1019.4 ± 5 kg/m3	999 ± 4.9 kg/m3
x1 = 0.692	1013.5 ± 5 kg/m3	982.6 ± 4.9 kg/m3
x1 = 0.696	1013.5 ± 5 kg/m3	989.6 ± 4.9 kg/m3
x1 = 0.793	1005.7 ± 4.9 kg/m3	976 ± 4.8 kg/m3
x1 = 0.796	1003.9 ± 4.9 kg/m3	976.4 ± 4.8 kg/m3
x1 = 0.895	997.4 ± 4.9 kg/m3	968.9 ± 4.8 kg/m3
x1 = 0.897	999.2 ± 4.9 kg/m3	969.3 ± 4.8 kg/m3
x1 = 0.995	996 ± 4.9 kg/m3 and 994.9 ± 4.9 kg/m3	967.3 ± 4.7 kg/m3 and 964.4 ± 4.7 kg/m3

O [water]
[1]
Conditions	mass density [kg/m3]
323.15 K	988.04 ± 4.9
333.15 K	983.2 ± 4.8

O [water] + C1CCNC1
Conditions	mass density [kg/m3]
[2], 323.15 K, x2 = 0	988.04 ± 4.9

O [water] + C1COCCN1
Conditions	mass density [kg/m3]
[2], 333.15 K, x2 = 0	983.2 ± 4.8

— the NIST ThermoML archive (doi:10.1021/je020191g)
